Laboratory results: ChEMBL document CHEMBL1828514, “Comparison of the reactivity of antimalarial 1,2,4,5-tetraoxanes with 1,2,4-trioxolanes in the presence of ferrous iron salts, heme, and ferrous iron salts/phosphatidylcholine” (J Med Chem, 2011)
Activity calls are given as the source filed them. No cut-off for these calls is given here.

Experiments:
[1] = Induction of oxyl radical formation from reaction with ferrous salt in the presence of 2,2,6,6-tetramethyl-1-piperidine-1-oxyl after 24 hrs by spin-trapping and LC/MS analysis; format: physicochemical
[2] = Induction of oxyl radical formation from reaction with ferrous heme assessed as decrease in heme concentration by HPLC analysis relative to control; format: physicochemical; set-up: scale not given: the % may be the effect or the level left
[3] = Induction of 2-Linoleoyl-1-palmitoyl-sn-phosphotidylcholine peroxidation in the presence of ferrous sulphate after 24 hrs by ESI/MS analysis; format: functional
[4] = Induction of 2-Linoleoyl-1-palmitoyl-sn-phosphotidylcholine peroxidation in the presence of Ferrous sulphate after 24 hrs by LC/MS analysis; format: functional
Plasmodium falciparum = test: Antimalarial activity against Plasmodium falciparum 3D7 assessed as inhibition of [3H]hypoxanthine incorporation after 48 hrs by liquid scintillation counting; format: functional, organism-based
[5] = Chemical stability of the compound assessed as iron-mediated decomposition after 24 hrs by LC/MS analysis; format: physicochemical
[6] = Induction of alkylated heme adduct formation from reaction with ferrous heme by LC/MS analysis
[7] = Induction of TEMPO adduct formation after 24 hrs in presence of 2,2,6,6-tetramethyl-1-piperidine-1-oxyl and ferrous sulfate by LC/MS analysis
[8] = Induction of formation of Manganese-TPC adduct from reaction with manganese(2) tetraphenylporphyrin; format: physicochemical
[9] = Induction of formation of chlorin-type adduct from reaction with iron(2) tetraphenylporphyrin; format: physicochemical
[10] = Induction of formation of demetalated adduct from reaction with iron(2) tetraphenylporphyrin; format: physicochemical
[11] = Induction of oxyl radical formation from reaction with iron(2) gluconate after 12 hrs by LC/MS analysis; format: physicochemical

Structure (SMILES)	Activity [2]	Activity [4]	IC50 (Plasmodium falciparum)	Stability [5]	Activity [6]	Activity [7]	further results
CC(C)(N)CNC(=O)C[C@H]1CC[C@]2(CC1)OO[C@]1(O2)C2CC3CC(C2)CC1C3 [OZ277]	–	–	–	–	–	–	Activity [1]: Active
C[C@@H]1CC[C@H]2[C@@H](C)C(=O)O[C@@H]3O[C@@]4(C)CC[C@@H]1[C@]32OO4 [ARTEMISININ]	70%	–	–	–	–	–	Activity [3]: inactive
CN1CCN(C2CCN(C(=O)C[C@H]3CC[C@]4(CC3)OO[C@]3(O4)C4CC5CC(C4)CC3C5)CC2)CC1	–	Active	0.5 nM	Unstable	–	–	–
O=C(CC1CCC2(CC1)OOC1(OO2)C2CC3CC(C2)CC1C3)N1CCN(C2CCNCC2)CC1 (centres undefined)	38%	Active	0.4 nM	Unstable	Active	–	–
O=C(CC1CCC2(CC1)OOC1(OO2)C2CC3CC(C2)CC1C3)N1CCOCC1 (centres undefined)	–	–	5.2 nM	–	Active	–	–
CC(CN1CCNCC1)C(=O)CC1CCC2(CC1)OOC1(OO2)C2CC3CC(C2)CC1C3 (centres undefined)	53%	Active	1.4 nM	Unstable	Active	Active	Activity [1]: Active; Activity [8]: Active; Activity [9]: Active; Activity [10]: Active
CC(C)CN1CCN(C(=O)C[C@H]2CC[C@]3(CC2)OO[C@]2(O3)C3CC4CC(C3)CC2C4)CC1	–	Active	2.1 nM	Unstable	Active	–	–
O=C(CC1CCC2(CC1)OOC1(OO2)C2CC3CC(C2)CC1C3)NCc1ccc(F)cc1 (centres undefined)	–	–	3 nM	–	–	–	Activity [3]: Active; Activity [11]: Active
CCOC(=O)CC1CCC2(CC1)OOC1(OO2)C2CC3CC(C2)CC1C3 (centres undefined)	–	–	10 nM	–	–	Active	–
O=C(CC1CCC2(CC1)OOC1(OO2)C2CC3CC(C2)CC1C3)NC1CC1 (centres undefined)	–	–	2.3 nM	–	–	Active	–
